Assay results as given in patent publication US20240166635A1, “AMINOHETEROARYL KINASE INHIBITORS” (Anrui Biomedical Technology (Guangzhou) Co.,Ltd., priority 2020, published 2024).
pIC50: −log10 of the molar value. Like-named read-outs stand apart in the source and are kept apart here. One block for each compound: values may come before it.

What was measured:
ER+BC = conditions: cited from earlier work
CDK2/CyclinE1 = CDK2/CyclinE1 (Homo sapiens (Human), UniProt P24941); experiment: CDK2/CyclinE1 kinase inhibitory activity (Caliper mobility shift); format: biochemical; conditions: read-out: CDK2/Cyclin El IC50
CDK6/CyclinD1 = CDK6/CyclinD1 (Homo sapiens (Human), UniProt Q00534); experiment: CDK6/CyclinD1 kinase inhibitory activity (Caliper mobility shift); format: biochemical; conditions: read-out: CDK6/Cyclin D1 IC50
Chain of CDK6/CyclinD1 (Q00534 whole entry): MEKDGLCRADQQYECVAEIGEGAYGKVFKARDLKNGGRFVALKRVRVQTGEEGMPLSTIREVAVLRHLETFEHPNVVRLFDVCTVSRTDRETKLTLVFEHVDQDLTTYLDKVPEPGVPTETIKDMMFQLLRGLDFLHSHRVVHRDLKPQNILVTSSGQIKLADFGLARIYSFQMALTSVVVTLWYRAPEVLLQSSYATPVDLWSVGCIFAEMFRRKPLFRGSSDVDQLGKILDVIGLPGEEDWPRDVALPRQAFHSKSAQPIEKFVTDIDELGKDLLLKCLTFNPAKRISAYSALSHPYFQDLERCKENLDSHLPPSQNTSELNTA
Chain of CDK6/CyclinD1 (P24385 whole entry partner): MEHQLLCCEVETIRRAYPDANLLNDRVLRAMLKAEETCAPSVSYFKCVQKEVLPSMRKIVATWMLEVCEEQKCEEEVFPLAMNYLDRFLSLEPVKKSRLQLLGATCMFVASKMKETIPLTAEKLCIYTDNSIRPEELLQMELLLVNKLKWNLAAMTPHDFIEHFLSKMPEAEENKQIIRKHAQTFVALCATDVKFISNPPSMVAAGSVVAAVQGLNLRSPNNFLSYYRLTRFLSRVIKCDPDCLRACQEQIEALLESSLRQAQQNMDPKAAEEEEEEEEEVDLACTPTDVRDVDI

CDK7/CyclinH/MAT1 = CDK7/CyclinH/MAT1 (Homo sapiens (Human), UniProt P50613); experiment: CDK7/CyclinH/MAT1 kinase inhibitory activity (Caliper mobility shift); format: biochemical
Chain of CDK7/CyclinH/MAT1 (P50613 whole entry): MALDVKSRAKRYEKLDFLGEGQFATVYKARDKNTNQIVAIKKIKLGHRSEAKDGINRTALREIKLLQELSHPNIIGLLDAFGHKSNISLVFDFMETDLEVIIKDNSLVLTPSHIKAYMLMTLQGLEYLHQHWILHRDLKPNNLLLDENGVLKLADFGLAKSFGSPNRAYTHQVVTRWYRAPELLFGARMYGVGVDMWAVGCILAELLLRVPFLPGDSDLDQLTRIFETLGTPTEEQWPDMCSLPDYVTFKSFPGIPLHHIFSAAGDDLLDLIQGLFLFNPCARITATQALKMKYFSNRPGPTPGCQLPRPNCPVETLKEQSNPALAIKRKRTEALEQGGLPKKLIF
Chain of CDK7/CyclinH/MAT1 (P51946 whole entry partner): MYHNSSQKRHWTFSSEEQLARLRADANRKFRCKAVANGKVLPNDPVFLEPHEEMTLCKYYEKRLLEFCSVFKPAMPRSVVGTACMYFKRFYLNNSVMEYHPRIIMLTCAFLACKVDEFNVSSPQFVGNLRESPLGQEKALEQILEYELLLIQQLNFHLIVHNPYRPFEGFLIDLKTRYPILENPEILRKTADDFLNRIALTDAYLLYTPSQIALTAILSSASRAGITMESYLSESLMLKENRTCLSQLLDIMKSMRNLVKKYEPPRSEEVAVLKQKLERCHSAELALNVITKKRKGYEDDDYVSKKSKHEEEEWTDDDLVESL
Chain of CDK7/CyclinH/MAT1 (P51948 whole entry partner): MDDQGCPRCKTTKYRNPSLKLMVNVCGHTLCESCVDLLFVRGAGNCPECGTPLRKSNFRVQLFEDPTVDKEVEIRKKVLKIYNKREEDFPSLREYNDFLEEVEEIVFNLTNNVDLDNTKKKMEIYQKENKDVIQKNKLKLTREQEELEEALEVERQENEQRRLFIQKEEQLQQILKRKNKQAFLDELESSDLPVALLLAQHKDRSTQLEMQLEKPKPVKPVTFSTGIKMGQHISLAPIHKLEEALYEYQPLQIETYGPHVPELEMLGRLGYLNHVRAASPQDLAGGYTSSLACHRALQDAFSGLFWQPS

CDK9/CyclinT1 = CDK9/CyclinT1 (Homo sapiens (Human), UniProt P50750); experiment: CDK9/CyclinT1 kinase inhibitory activity (Caliper mobility shift); format: biochemical; conditions: read-out: CDK9/Cyclin T1 IC50
Chain of CDK9/CyclinT1 (P50750 whole entry): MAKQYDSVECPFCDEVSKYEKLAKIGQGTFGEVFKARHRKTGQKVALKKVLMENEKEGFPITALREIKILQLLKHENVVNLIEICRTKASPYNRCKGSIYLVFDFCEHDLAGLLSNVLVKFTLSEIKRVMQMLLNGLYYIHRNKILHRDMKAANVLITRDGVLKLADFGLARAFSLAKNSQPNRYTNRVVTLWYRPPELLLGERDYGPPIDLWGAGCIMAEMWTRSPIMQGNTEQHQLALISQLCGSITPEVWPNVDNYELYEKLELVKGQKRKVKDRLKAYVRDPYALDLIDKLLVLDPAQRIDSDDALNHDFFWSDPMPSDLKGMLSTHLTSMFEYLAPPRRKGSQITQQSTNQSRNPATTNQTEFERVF
Chain of CDK9/CyclinT1 (O60563 whole entry partner): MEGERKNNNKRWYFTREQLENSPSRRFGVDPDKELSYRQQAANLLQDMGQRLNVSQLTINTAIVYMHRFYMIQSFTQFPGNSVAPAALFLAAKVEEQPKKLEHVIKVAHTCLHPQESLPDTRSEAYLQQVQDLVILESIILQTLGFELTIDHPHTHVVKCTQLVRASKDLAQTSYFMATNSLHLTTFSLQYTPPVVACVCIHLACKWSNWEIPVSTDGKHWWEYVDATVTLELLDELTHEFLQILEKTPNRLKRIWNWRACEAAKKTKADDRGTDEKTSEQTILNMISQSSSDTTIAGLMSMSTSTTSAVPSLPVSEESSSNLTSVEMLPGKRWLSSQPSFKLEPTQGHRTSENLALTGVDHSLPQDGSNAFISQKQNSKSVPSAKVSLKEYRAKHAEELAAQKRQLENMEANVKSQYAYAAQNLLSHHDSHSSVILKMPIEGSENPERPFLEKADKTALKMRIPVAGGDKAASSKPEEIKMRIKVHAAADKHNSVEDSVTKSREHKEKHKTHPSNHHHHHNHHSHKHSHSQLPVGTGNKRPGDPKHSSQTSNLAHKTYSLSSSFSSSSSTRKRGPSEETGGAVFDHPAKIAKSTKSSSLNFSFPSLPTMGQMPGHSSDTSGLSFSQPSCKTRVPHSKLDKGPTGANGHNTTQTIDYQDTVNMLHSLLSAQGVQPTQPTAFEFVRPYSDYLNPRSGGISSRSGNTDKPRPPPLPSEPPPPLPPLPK

CDK4/Cyclin D1 = CDK4/Cyclin D1 (Homo sapiens (Human), UniProt P11802); experiment: CDK4/CyclinD1 kinase inhibitory activity (Caliper mobility shift); format: biochemical
Chain of CDK4/Cyclin D1 (P11802 whole entry): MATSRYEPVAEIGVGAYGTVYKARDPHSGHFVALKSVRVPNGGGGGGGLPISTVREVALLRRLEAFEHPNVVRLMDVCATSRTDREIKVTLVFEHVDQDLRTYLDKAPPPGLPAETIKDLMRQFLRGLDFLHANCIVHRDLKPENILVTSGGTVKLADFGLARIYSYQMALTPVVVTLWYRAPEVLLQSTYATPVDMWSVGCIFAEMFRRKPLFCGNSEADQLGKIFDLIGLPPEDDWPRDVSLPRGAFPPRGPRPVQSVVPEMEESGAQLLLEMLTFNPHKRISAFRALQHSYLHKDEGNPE
Chain of CDK4/Cyclin D1 (P24385 whole entry partner): as the sequence (P24385 whole entry partner) above

CDK1/CyclinB = CDK1/CyclinB (Homo sapiens (Human), UniProt P06493); experiment: CDK1/CyclinB kinase inhibitory activity (Caliper mobility shift); format: biochemical; conditions: read-out: CDK1/Cyclin B1 IC50
Chain of CDK1/CyclinB (P06493 whole entry): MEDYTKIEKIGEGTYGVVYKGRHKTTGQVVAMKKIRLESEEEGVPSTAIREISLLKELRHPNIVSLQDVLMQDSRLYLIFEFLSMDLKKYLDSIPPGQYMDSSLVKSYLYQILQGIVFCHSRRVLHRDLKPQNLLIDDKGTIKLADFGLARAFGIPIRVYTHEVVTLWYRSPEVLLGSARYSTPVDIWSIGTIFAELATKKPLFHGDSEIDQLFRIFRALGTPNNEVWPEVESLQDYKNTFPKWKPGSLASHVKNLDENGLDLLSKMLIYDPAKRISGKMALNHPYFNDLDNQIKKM
Chain of CDK1/CyclinB (P14635 whole entry partner): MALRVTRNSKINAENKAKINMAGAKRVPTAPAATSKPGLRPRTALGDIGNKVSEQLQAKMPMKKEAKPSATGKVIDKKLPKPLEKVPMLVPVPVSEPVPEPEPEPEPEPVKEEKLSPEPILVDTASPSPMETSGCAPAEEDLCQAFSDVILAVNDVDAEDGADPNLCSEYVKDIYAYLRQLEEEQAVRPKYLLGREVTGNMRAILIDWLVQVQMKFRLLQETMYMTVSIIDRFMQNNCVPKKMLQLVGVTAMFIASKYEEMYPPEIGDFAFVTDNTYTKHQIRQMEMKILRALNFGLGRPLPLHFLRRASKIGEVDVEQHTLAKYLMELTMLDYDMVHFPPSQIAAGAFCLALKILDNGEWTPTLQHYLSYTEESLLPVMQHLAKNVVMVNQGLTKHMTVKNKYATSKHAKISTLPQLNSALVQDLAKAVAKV

Compound: Palbociclib plus fulvestrant [Palbociclib+fulvestrant]
median PFS (ER+BC; CCNE1 high): 7.6 month
median PFS (ER+BC; CCNE1 low): 14.1 month

Compound: N#Cc1cnc(Nc2ccc(S(N)(=O)=O)cc2)nc1-c1cccc(C2CC2)c1 [Example 96]
pIC50 (CDK2/CyclinE1): 7.00 to 8.00
pIC50 (CDK6/CyclinD1): ≤ 6.00
pIC50 (CDK7/CyclinH/MAT1): ≤ 6.00
pIC50 (CDK9/CyclinT1): 6.00 to 7.00
pIC50 (CDK4/Cyclin D1): 7.00 to 8.00
pIC50 (CDK1/CyclinB): 6.00 to 7.00

Compound: Cn1cc(S(=O)(=O)N2CCC(Nc3ncc(C#N)c(OC4CCCC4(C)O)n3)CC2)cn1 (single isomer, unassigned) [Example 48a]
pIC50 (CDK2/CyclinE1): > 8.00
pIC50 (CDK6/CyclinD1): > 8.00
pIC50 (CDK7/CyclinH/MAT1): 7.00 to 8.00
pIC50 (CDK9/CyclinT1): 6.00 to 7.00
pIC50 (CDK4/Cyclin D1): > 8.00
pIC50 (CDK1/CyclinB): > 8.00

Continued, values first:

pIC50 (CDK2/CyclinE1): > 8.00
pIC50 (CDK6/CyclinD1): > 8.00
pIC50 (CDK7/CyclinH/MAT1): 7.00 to 8.00
pIC50 (CDK9/CyclinT1): 6.00 to 7.00
pIC50 (CDK4/Cyclin D1): > 8.00
pIC50 (CDK1/CyclinB): 7.00 to 8.00
Compound: C[C@]1(O)CCC[C@H]1Oc1nc(NC2CCN(S(C)(=O)=O)CC2)ncc1C#N (relative stereo) [Example 3b, cis-4-((2-hydroxy-2-methylcyclopentyl)oxy)-2-((1-(methylsulfonyl)piperidin-4-yl)amino)pyrimidine-5-carbonitrile]

pIC50 (CDK2/CyclinE1): 6.00 to 7.00
pIC50 (CDK6/CyclinD1): 6.00 to 7.00
pIC50 (CDK7/CyclinH/MAT1): ≤ 6.00
pIC50 (CDK9/CyclinT1): ≤ 6.00
pIC50 (CDK4/Cyclin D1): 6.00 to 7.00
pIC50 (CDK1/CyclinB): ≤ 6.00
Compound: CC1(O)CC(F)(F)CCC1Oc1nc(NC2CCN(S(C)(=O)=O)CC2)ncc1C#N (single isomer, unassigned) [Example 47b]

pIC50 (CDK2/CyclinE1): > 8.00
pIC50 (CDK6/CyclinD1): 7.00 to 8.00
pIC50 (CDK7/CyclinH/MAT1): ≤ 6.00
pIC50 (CDK9/CyclinT1): 6.00 to 7.00
pIC50 (CDK4/Cyclin D1): > 8.00
pIC50 (CDK1/CyclinB): 7.00 to 8.00
Compound: CNS(=O)(=O)N1CCC(Nc2ncc(C#N)c(OCC3(C)CCCC3)n2)CC1 [Example 55]

pIC50 (CDK2/CyclinE1): > 8.00
pIC50 (CDK6/CyclinD1): 6.00 to 7.00
pIC50 (CDK7/CyclinH/MAT1): 6.00 to 7.00
pIC50 (CDK9/CyclinT1): 6.00 to 7.00
pIC50 (CDK4/Cyclin D1): 6.00 to 7.00
pIC50 (CDK1/CyclinB): 7.00 to 8.00
Compound: CNS(=O)(=O)c1ccc(Nc2ncc(C(F)(F)F)c(OC3CCCC3O)n2)cc1 (single isomer, unassigned) [Example 105a]
